From patent publication US20250195521A1 (Revolution Medicines, Inc., priority 2020, published 2025)
Where “and” joins values, the source holds several entries; their conditions need not be identical. Equal entries are not always repeated. Where two headings read alike, the source gives them in different places.

Assays:
[1] = biological target: KRAS G12C (Homo sapiens (Human), UniProt P01116+P62937, G12C); assay: Ras-Raf disruption/FRET/MOA assay (BRAF RBD, Cyclophilin A); type: biochemical; conditions: read-out: KRAS G12C FRET IC50
KRAS G12C, sequence (P01116-2 other isoform, or with tags, fused parts or gaps G12C): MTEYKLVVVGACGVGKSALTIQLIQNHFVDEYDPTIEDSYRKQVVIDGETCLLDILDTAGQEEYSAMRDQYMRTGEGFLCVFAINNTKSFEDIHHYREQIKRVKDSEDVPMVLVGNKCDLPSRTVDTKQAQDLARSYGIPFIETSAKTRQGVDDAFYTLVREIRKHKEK
KRAS G12C, sequence (P62937 whole entry): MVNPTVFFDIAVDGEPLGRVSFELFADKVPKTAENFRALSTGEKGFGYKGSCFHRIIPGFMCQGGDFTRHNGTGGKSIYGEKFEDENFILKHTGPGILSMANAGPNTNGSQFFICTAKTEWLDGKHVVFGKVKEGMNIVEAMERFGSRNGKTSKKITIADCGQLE
Method in brief: (§1)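 25 μM tagless Cyclophilin A, 12.5 nM His6-Ras-GMPPNP and 50 nM GST-BRAF RBD in HEPES pH 7.3 buffer with 5 mM MgCl2, with compound (10-point 3-fold series from 30 μM final) for 3 h at 25 °C. Anti-His Eu and anti-GST APC then added for 1.5 h. IC50 from TR-FRET ratio decrease versus DMSO.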

[2] = biological target: KRAS G12D (Homo sapiens (Human), UniProt P01116+P62937, G12D); assay: as above; type: biochemical; conditions: read-out: KRAS G12D FRET IC50
KRAS G12D, sequence (P01116 other isoform, or with tags, fused parts or gaps G12D): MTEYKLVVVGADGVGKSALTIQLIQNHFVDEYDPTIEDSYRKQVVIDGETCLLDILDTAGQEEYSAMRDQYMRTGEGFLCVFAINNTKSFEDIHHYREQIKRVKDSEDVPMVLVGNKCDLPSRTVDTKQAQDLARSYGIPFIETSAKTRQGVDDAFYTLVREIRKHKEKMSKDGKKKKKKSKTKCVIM
KRAS G12D, sequence (P62937 whole entry): as the sequence (P62937 whole entry) above
Method in brief: as §1

[3] = biological target: KRAS G12S (Homo sapiens (Human), UniProt P01116+P62937, G12S); assay: as above; type: biochemical; conditions: read-out: KRAS G12S FRET IC50
KRAS G12S, sequence (P01116 other isoform, or with tags, fused parts or gaps G12S): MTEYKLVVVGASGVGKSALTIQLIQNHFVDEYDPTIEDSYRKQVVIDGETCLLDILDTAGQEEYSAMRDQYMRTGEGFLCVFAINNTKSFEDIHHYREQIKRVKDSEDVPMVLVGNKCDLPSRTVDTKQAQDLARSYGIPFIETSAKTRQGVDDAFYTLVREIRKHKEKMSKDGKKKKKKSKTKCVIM
KRAS G12S, sequence (P62937 whole entry): as the sequence (P62937 whole entry) above
Method in brief: as §1

[4] = biological target: KRAS G12V (Homo sapiens (Human), UniProt P01116+P62937, G12V); assay: as above; type: biochemical; conditions: read-out: KRAS G12V FRET IC50
KRAS G12V, sequence (P01116 other isoform, or with tags, fused parts or gaps G12V): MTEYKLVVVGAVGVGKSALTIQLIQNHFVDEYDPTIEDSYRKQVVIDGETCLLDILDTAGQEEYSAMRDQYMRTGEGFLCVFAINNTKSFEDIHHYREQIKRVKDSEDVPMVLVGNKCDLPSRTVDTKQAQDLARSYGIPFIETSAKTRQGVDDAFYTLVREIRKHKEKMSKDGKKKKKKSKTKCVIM
KRAS G12V, sequence (P62937 whole entry): as the sequence (P62937 whole entry) above
Method in brief: as §1

[5] = biological target: KRAS G13C (Homo sapiens (Human), UniProt P01116+P62937, G13C); assay: as above; type: biochemical; conditions: read-out: KRAS G13C FRET IC50
KRAS G13C, sequence (P01116 other isoform, or with tags, fused parts or gaps G13C): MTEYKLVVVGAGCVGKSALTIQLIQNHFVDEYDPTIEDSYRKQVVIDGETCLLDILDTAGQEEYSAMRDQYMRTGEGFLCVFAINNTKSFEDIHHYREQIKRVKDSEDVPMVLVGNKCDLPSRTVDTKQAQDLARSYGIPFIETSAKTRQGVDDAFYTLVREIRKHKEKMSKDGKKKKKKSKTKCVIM
KRAS G13C, sequence (P62937 whole entry): as the sequence (P62937 whole entry) above
Method in brief: as §1

[6] = biological target: KRAS G13D (Homo sapiens (Human), UniProt P01116+P62937, G13D); assay: as above; type: biochemical; conditions: read-out: KRAS G13D FRET data IC50
KRAS G13D, sequence (P01116 other isoform, or with tags, fused parts or gaps G13D): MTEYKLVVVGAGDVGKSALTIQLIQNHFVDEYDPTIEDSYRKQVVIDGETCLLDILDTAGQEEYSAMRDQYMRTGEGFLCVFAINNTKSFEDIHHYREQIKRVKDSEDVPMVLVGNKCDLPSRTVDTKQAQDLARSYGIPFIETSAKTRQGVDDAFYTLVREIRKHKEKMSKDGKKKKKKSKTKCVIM
KRAS G13D, sequence (P62937 whole entry): as the sequence (P62937 whole entry) above
Method in brief: as §1

[7] = biological target: KRAS WT (Homo sapiens (Human), UniProt P01116+P62937); assay: as above; type: biochemical; conditions: read-out: KRAS WT FRET data IC50
KRAS WT, sequence (P01116 other isoform, or with tags, fused parts or gaps): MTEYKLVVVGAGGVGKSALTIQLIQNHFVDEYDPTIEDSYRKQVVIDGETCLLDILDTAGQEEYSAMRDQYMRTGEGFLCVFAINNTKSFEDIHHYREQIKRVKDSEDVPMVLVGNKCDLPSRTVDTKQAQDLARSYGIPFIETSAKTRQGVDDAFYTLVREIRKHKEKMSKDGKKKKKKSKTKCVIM
KRAS WT, sequence (P62937 whole entry): as the sequence (P62937 whole entry) above
Method in brief: as §1

[8] = biological target: NRAS G12C (Homo sapiens (Human), UniProt P01111+P62937, G12C); assay: as above; type: biochemical; conditions: read-out: NRAS G12C FRET data IC50
NRAS G12C, sequence (P01111 whole entry G12C): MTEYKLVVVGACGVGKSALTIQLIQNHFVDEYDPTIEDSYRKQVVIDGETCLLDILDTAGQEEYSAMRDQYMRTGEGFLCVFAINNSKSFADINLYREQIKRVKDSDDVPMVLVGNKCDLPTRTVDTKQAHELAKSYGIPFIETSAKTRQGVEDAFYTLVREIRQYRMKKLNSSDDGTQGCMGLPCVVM
NRAS G12C, sequence (P62937 whole entry): as the sequence (P62937 whole entry) above
Method in brief: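 Measured: compound-facilitated Cyclophilin A:Ras complex blocking RAF RBD binding. Conditions: 12.5 nM Ras-GMPPNP, 50 nM BRAF RBD, 25 μM CypA, 3 h plus 1.5 h detection. Output: IC50 from TR-FRET ratio.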

[9] = test system: NCI-H358 (K-Ras G12C); assay: CellTiter-Glo cell viability assay, NCI-H358; type: cell-based, human; conditions: Homo sapiens, NCI-H358, 120 h, 5-day treatment; read-out: H358 Cell Viability assay data (K-Ras G12C, IC50)
Method in brief: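 After direct compound addition, plates were incubated to day 5 and equilibrated at room temperature for about 30 minutes before CellTiter-Glo reading. Values derive from luminescence relative to the DMSO mean, fitted with a four-parameter logistic model.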

[10] = test system: NCI-H358 cells (K-Ras G12C); assay: CellTiter-Glo cell viability, NCI-H358; type: cell-based, human; conditions: Homo sapiens, NCI-H358, 120 h, read-out: H358 Cell Viability IC50
Description: Note—The following protocol describes a procedure for monitoring cell viability of K-Ras mutant cancer cell lines in response to a compound of the invention. Other RAS isoforms may be employed, though the number of cells to be seeded will vary based on cell line used.
Test compounds (132.5 nl) were directly dispensed into the assay plates containing cells. […] On day 5, assay plates and their contents were equilibrated to room temperature for approximately 30 minutes. […] Luminescence was measured using the PerkinElmer Enspire. Data were normalized by the following: (Sample signal/Avg. DMSO)*100. The data were fit using a four-parameter logistic fit.

[11] = test system: Capan-1 cells (K-Ras G12V); assay: CellTiter-Glo cell viability, Capan-1; type: cell-based, human; conditions: Homo sapiens, CAPAN-1, 120 h, K-Ras G12V, 5-day treatment; read-out: Capan-1 Cell Viability IC50
Method in brief: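 Endpoint: CellTiter-Glo luminescence on day 5, following ~30 min at room temperature. Data as (sample/mean DMSO)×100, four-parameter logistic fit.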

[12] = test system: K-Ras G12C (NCI-H358 cells); assay: Potency assay: pERK in NCI-H358 cells; type: cell-based, human; conditions: Homo sapiens; NCI-H358 cells, 4 hours; read-out: pERK EC50 (H358 KRAS G12C)
Method in brief: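 Cells plated the day before were exposed for 4 h at 37° C, 5% CO2 to a 10-point, 3-fold DMSO dilution series (10 mM top stock), in duplicate. Phospho-ERK was read by AlphaLISA SureFire Ultra or by In-Cell Western with DRAQ5 DNA stain, and IC50 came from a 4-parameter sigmoidal fit.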

Row | Compound | IC50 [1] | IC50 [2] [nM] | IC50 [3] | IC50 [4] | IC50 [5] | IC50 [6] | IC50 [7] | IC50 [8] | IC50 [9] [nM] | EC50 [12] [nM] | IC50 ([10]; K-Ras G12C, 5-day treatment) [nM] | IC50 [10] [nM] | IC50 [11] [nM]
1 | CCn1c(-c2cnccc2COC)c2c3cc(ccc31)-c1cc(O)cc(c1)C[C@H](NC(=O)[C@H](C(C)C)N(C)C(=O)C1(C)COC1)C(=O)N1CCC[C@H](N1)C(=O)OCC(C)(C)C2 [Compound A49] | 100 to 1000 nM | 1000 to 10000 | 1000 to 10000 nM | 100 to 1000 nM | 1000 to 10000 nM | 1000 to 10000 nM | 100 to 1000 nM | 1000 to 10000 nM | > 10000 |  |  |  | 
2 | CCn1c(-c2cnccc2COC)c2c3cc(ccc31)-c1cc(O)cc(c1)C[C@H](NC(=O)[C@H](C(C)C)N(C)C(=O)OC1CCOC1)C(=O)N1CCC[C@H](N1)C(=O)OCC(C)(C)C2 (stereo partly drawn) [Compound A50, oxolan-3-yl-N-[(1S)-1-{[(8S,14S)-22-ethyl-4-hydroxy-21-[4-(methoxymethyl)pyridin-3-yl]-18,18-dimethyl-9,15-dioxo-16-oxa-10,22,28-triazapentacyclo [18.5.2.1^2,6.1^10,14.0^23,27]nonacosa-1 (26),2,4,6 (29),20,23 (27),24-heptaen-8-yl]carbamoyl}-2-methylpropyl]-N-methylcarbamate] |  |  |  |  |  |  |  |  |  |  |  | 1000 to 10000 | 
3 | CCn1c(-c2cnccc2COC)c2c3cc(ccc31)-c1cc(O)cc(c1)C[C@H](NC(=O)[C@H](C(C)C)N(C)C(=O)C1CNC1)C(=O)N1CCC[C@H](N1)C(=O)OCC(C)(C)C2 [Compound A87] | 100 to 1000 nM and 10 to 100 nM | 100 to 1000 | 100 to 1000 nM and 10 to 100 nM | 100 to 1000 nM and 1000 to 10000 nM | 100 to 1000 nM and 10 to 100 nM | 10 to 100 nM and 100 to 1000 nM | 10 to 100 nM and 100 to 1000 nM | 10 to 100 nM and 100 to 1000 nM | 10 to 100 | < 5000 |  |  | > 10000
4 | CCn1c(-c2cccnc2[C@H](C)OC)c2c3cc(ccc31)-c1csc(n1)C[C@H](NC(=O)[C@H](C(C)C)N(C)C(=O)O[C@H]1CCN(C)C1)C(=O)N1CCC[C@H](N1)C(=O)OCC(C)(C)C2 [Compound A173] |  |  |  |  |  |  |  |  |  |  | 100 to 1000 |  | 
5 | CCn1c(-c2cccnc2[C@H](C)OC)c2c3cc(ccc31)-c1csc(n1)C[C@H](NC(=O)[C@H](C(C)C)N(C)C(=O)N1[C@H](C)COC[C@H]1C)C(=O)N1CCC[C@H](N1)C(=O)OCC(C)(C)C2 [Compound A275] | 10 to 100 nM | 100 to 1000 | 10 to 100 nM | 10 to 100 nM | 10 to 100 nM | 10 to 100 nM | 10 to 100 nM | 10 to 100 nM |  | < 5000 |  |  | 100 to 1000

Second part, led by results:

Row | IC50 [1] | IC50 [2] [nM] | IC50 [3] | IC50 [4] | IC50 [5] | IC50 [6] | IC50 [7] | IC50 [8] | IC50 [9] [nM] | EC50 [12] [nM] | IC50 ([10]; K-Ras G12C, 5-day treatment) [nM] | Compound | IC50 [10] [nM] | IC50 [11] [nM]
6 | 100 to 1000 nM | 1000 to 10000 | 100 to 1000 nM | 100 to 1000 nM | 100 to 1000 nM | 1000 to 10000 nM | 100 to 1000 nM | 100 to 1000 nM |  | < 5000 |  | CCn1c(-c2cccnc2[C@H](C)OC)c2c3cc(ccc31)-c1csc(n1)C[C@H](NC(=O)[C@H](C(C)C)N(C)C(=O)N1CCN3CCOCC3C1)C(=O)N1CCC[C@H](N1)C(=O)OCC(C)(C)C2 (stereo partly drawn) [Compound A296] |  | 10 to 100
7 | 10 to 100 nM | 10 to 100 | 10 to 100 nM | 10 to 100 nM | 10 to 100 nM | 10 to 100 nM | 10 to 100 nM | 10 to 100 nM |  | < 5000 |  | CCn1c(-c2cccnc2[C@H](C)OC)c2c3cc(ccc31)-c1cc(O)cc(c1)C[C@H](NC(=O)[C@H](C(C)C)N(C)C(=O)[C@@H]1CCN(C(=O)OC)C1)C(=O)N1CCC[C@H](N1)C(=O)OCC(C)(C)C2 [Compound A365] |  | 10 to 100
8 | 10 to 100 nM | 10 to 100 | 10 to 100 nM | 10 to 100 nM | 10 to 100 nM | 10 to 100 nM | 10 to 100 nM | 10 to 100 nM |  | < 5000 |  | CCn1c(-c2cccnc2[C@H](C)OC)c2c3cc(ccc31)-c1cc(O)cc(c1)C[C@H](NC(=O)[C@H](C(C)C)N(C)C(=O)[C@H]1CCN(C(=O)[C@@H]3CCCN3)C1)C(=O)N1CCC[C@H](N1)C(=O)OCC(C)(C)C2 [Compound A370] |  | 1000 to 10000
9 | 10 to 100 nM | 10 to 100 | 10 to 100 nM | 10 to 100 nM | 10 to 100 nM | 10 to 100 nM | 10 to 100 nM | 10 to 100 nM |  | < 5000 |  | CCn1c(-c2cccnc2[C@H](C)OC)c2c3cc(ccc31)-c1cc(O)cc(c1)C[C@H](NC(=O)[C@H](C(C)C)N(C)C(=O)[C@H]1CCN(C(=O)[C@H]3CCCN3C)C1)C(=O)N1CCC[C@H](N1)C(=O)OCC(C)(C)C2 [Compound A371] |  | 1000 to 10000
10 | 10 to 100 nM | 10 to 100 | 10 to 100 nM | 10 to 100 nM | 10 to 100 nM | 10 to 100 nM | 10 to 100 nM | 10 to 100 nM |  | < 5000 |  | CCn1c(-c2cccnc2[C@H](C)OC)c2c3cc(ccc31)-c1cc(O)cc(c1)C[C@H](NC(=O)[C@H](C(C)C)N(C)C(=O)[C@H]1CCN(C(=O)[C@]3(C)CCCN3)C1)C(=O)N1CCC[C@H](N1)C(=O)OCC(C)(C)C2 [Compound A380] |  | 1000 to 10000
11 | 100 to 1000 nM | 100 to 1000 | 100 to 1000 nM | 100 to 1000 nM | 10 to 100 nM | 100 to 1000 nM | 100 to 1000 nM | 100 to 1000 nM |  | < 5000 |  | CCn1c(-c2cccnc2[C@H](C)OC)c2c3cc(ccc31)-c1cc(O)cc(c1)C[C@H](NC(=O)[C@H](C(C)C)N(C)C(=O)[C@H]1CCCC[C@@H]1N)C(=O)N1CCC[C@H](N1)C(=O)OCC(C)(C)C2 [Compound A394] |  | 1000 to 10000
12 | 10 to 100 nM | 10 to 100 | 10 to 100 nM | 100 to 1000 nM | 10 to 100 nM | 10 to 100 nM | 10 to 100 nM | 10 to 100 nM |  | < 5000 |  | CCn1c(-c2cccnc2[C@H](C)OC)c2c3cc(ccc31)-c1cc(O)cc(c1)C[C@H](NC(=O)[C@H](C(C)C)N(C)C(=O)[C@H]1CCCC[C@H]1N)C(=O)N1CCC[C@H](N1)C(=O)OCC(C)(C)C2 [Compound A419] |  | 100 to 1000
